Test results taken from ChEMBL document CHEMBL4052617, “Antibacterial activity of N-methylbenzofuro[3,2-b]quinoline and N-methylbenzoindolo[3,2-b]-quinoline derivatives and study of their mode of action” (2017).
Converted amounts (≈) assume the structure as drawn.

Key:
Assay type in all cases: functional
Pseudomonas aeruginosa = assay: Antibacterial activity against multidrug-resistant Pseudomonas aeruginosa ATCC BAA2108 after 18 hrs by Mueller-Hinton broth microdilution method; settings: ATCC BAA2108, 18 h
Staphylococcus aureus [1] = assay: Antibacterial activity against methicillin-resistant Staphylococcus aureus ATCC BAA41 after 18 hrs by cation adjusted Mueller-Hinton broth microdilution method; settings: ATCC BAA41, 18 h
Staphylococcus aureus [2] = assay: Antibacterial activity against Staphylococcus aureus ATCC 29213 after 18 hrs by cation adjusted Mueller-Hinton broth microdilution method; settings: ATCC 29213, 18 h
Klebsiella pneumoniae = assay: Antibacterial activity against Klebsiella pneumoniae ATCC BAA2470 expressing NDM-1 beta-lactamase after 18 hrs by Mueller-Hinton broth microdilution method; settings: ATCC BAA2470, 18 h
Enterococcus faecium [3] = assay: Antibacterial activity against vancomycin-resistant Enterococcus faecium ATCC 700221 after 18 hrs by brain heart infusion broth microdilution method; settings: ATCC 700221, 18 h
Escherichia coli [4] = assay: Antibacterial activity against Escherichia coli ATCC […] expressing NDM-1 beta-lactamase after 18 hrs by Mueller-Hinton broth microdilution method
Enterococcus faecium [5] = assay: Antibacterial activity against antibiotic-susceptile Enterococcus faecium ATCC 49624 after 18 hrs by brain heart infusion broth microdilution method; settings: ATCC 49624, 18 h
Bacillus subtilis = assay: Antibacterial activity against Bacillus subtilis 168 after 18 hrs by Mueller-Hinton broth microdilution method; settings: subsp. subtilis str. 168, 18 h
Escherichia coli [6] = assay: Antibacterial activity against Escherichia coli ATCC 25922 after 18 hrs by Mueller-Hinton broth microdilution method; settings: ATCC 25922, 18 h

Row | SMILES | MIC (Pseudomonas aeruginosa) | MIC (Staphylococcus aureus [1]) | MIC (Staphylococcus aureus [2]) | MIC (Klebsiella pneumoniae) | MIC (Enterococcus faecium [3]) | MIC (Escherichia coli [4]) | MIC (Enterococcus faecium [5]) | MIC (Bacillus subtilis) | MIC (Escherichia coli [6])
1 | COc1cccc(Nc2c3ccccc3[n+](C)c3c2[nH]c2ccccc23)c1.[I-] | > 64 µg/mL | 4 µg/mL | 4 µg/mL | > 64 µg/mL | 8 µg/mL | 8 µg/mL | 8 µg/mL | 4 µg/mL | 8 µg/mL
2 | Cc1cc(C)cc(Nc2c3ccccc3[n+](C)c3c2oc2ccccc23)c1.[I-] | > 64 µg/mL | 6 µg/mL | 6 µg/mL | > 64 µg/mL | 8 µg/mL | 12 µg/mL | 8 µg/mL | 6 µg/mL | 12 µg/mL
3 | C[n+]1c2ccccc2c(Nc2ccc(OC(F)(F)F)cc2)c2[nH]c3ccccc3c21.[I-] | 48 µg/mL | 2 µg/mL | 2 µg/mL | 48 µg/mL | 4 µg/mL | 6 µg/mL | 4 µg/mL | 2 µg/mL | 6 µg/mL
4 | C[n+]1c2ccccc2c(Nc2ccc(OC(F)(F)F)cc2)c2oc3ccccc3c21.[I-] | 64 µg/mL | 4 µg/mL | 4 µg/mL | 64 µg/mL | 6 µg/mL | 8 µg/mL | 6 µg/mL | 4 µg/mL | 8 µg/mL
5 | C[n+]1c2ccccc2c(Nc2ccc(F)cc2)c2[nH]c3ccccc3c21.[I-] | 64 µg/mL | 4 µg/mL | 4 µg/mL | 64 µg/mL | 8 µg/mL | 8 µg/mL | 8 µg/mL | 4 µg/mL | 8 µg/mL
6 | Cc1ccc(Nc2c3ccccc3[n+](C)c3c2[nH]c2ccccc23)cc1.[I-] | 64 µg/mL | 4 µg/mL | 4 µg/mL | 64 µg/mL | 6 µg/mL | 8 µg/mL | 6 µg/mL | 4 µg/mL | 8 µg/mL
7 | Cc1cc(F)ccc1Nc1c2ccccc2[n+](C)c2c1[nH]c1ccccc12.[I-] | 64 µg/mL | 4 µg/mL | 4 µg/mL | 64 µg/mL | 8 µg/mL | 8 µg/mL | 8 µg/mL | 4 µg/mL | 8 µg/mL
8 | Cc1ccc(Nc2c3ccccc3[n+](C)c3c2oc2ccccc23)cc1F.[I-] | > 64 µg/mL | 6 µg/mL | 6 µg/mL | > 64 µg/mL | 8 µg/mL | 12 µg/mL | 8 µg/mL | 6 µg/mL | 12 µg/mL
9 | COc1ccc2cc3[n+](cc2c1OC)CCc1cc2c(cc1-3)OCO2.[Cl-] [BERBERINE CHLORIDE] | > 192 µg/mL | 192 µg/mL | 128 µg/mL | > 192 µg/mL | > 192 µg/mL | > 192 µg/mL | > 192 µg/mL | 128 µg/mL | > 192 µg/mL
10 | C[n+]1c2ccccc2c(Nc2ccc(Cl)cc2)c2[nH]c3ccccc3c21.[I-] | 64 µg/mL | 4 µg/mL | 4 µg/mL | 64 µg/mL | 6 µg/mL | 8 µg/mL | 6 µg/mL | 4 µg/mL | 8 µg/mL
11 | CN[C@H](CC(C)C)C(=O)N[C@H]1C(=O)N[C@@H](CC(N)=O)C(=O)N[C@H]2C(=O)N[C@H]3C(=O)N[C@H](C(=O)N[C@H](C(=O)O)c4cc(O)cc(O)c4-c4cc3ccc4O)[C@H](O)c3ccc(c(Cl)c3)Oc3cc2cc(c3O[C@@H]2O[C@H](CO)[C@@H](O)[C@H](O)[C@H]2O[C@H]2C[C@](C)(N)[C@H](O)[C@H](C)O2)Oc2ccc(cc2Cl)[C@H]1O [VANCOMYCIN] | > 64 µg/mL |  |  | > 64 µg/mL | > 64 µg/mL | 6 µg/mL (≈ 4.14 µM) |  | 1 µg/mL (≈ 0.69 µM) | 2 µg/mL (≈ 1.38 µM)
12 | COc1cccc(OC)c1C(=O)N[C@@H]1C(=O)N2[C@@H]1SC(C)(C)[C@@H]2C(=O)O [METHICILLIN] | > 192 µg/mL | > 192 µg/mL | 1 µg/mL (≈ 2.63 µM) | > 192 µg/mL |  | > 192 µg/mL |  | 0.5 µg/mL (≈ 1.31 µM) | 4 µg/mL (≈ 10.5 µM)
